Source: the METLIN SMRT retention time set (Domingo-Almenara et al. 2019)

Assay: gradient 5% acetonitrile 3 min, to 50% in 2 min, to 85% in 15 min, held 3 min, 100 µL/min
Conditions: column: Zorbax Extend-C18 2.1 x 50 mm; eluents: water / acetonitrile, 0.1% formic acid
Outline: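 In both positive and negative ionization mode, a quadrupole time-of-flight mass spectrometer coupled to HPLC analyzed pure standards run in mixtures of ~100 molecules. The Zorbax Extend-C18 column (2.1 × 50 mm, 1.8 μm) was operated at 100 μL/min with water and acetonitrile, each containing 0.1% formic acid. The dead volume was 40 μL and the dwell volume 900 μL. Retention time came from adduct peaks that were computationally picked and individually inspected by hand.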

In order of rising RP-LC retention time:
1. CCn1cc(-c2ccncc2)cc1C(=O)NCc1ccc(N(C)C)cc1  559 s
2. CCN1CCN(CCCNC(=O)c2ccc(CS(=O)c3ccccc3Cl)o2)CC1 (stereo not drawn)  567 s
3. CN1CCN(c2ncncc2N2CCC(C(=O)NCc3ccc(F)cc3Cl)CC2)CC1  572 s
4. CCN1CCN(C(=O)C2Cn3cccc3C(=O)N2CC(C)C)CC1 (stereo not drawn)  573 s
5. COc1nccc(N2CCC(CC(=O)NCc3ccc(OC)c(OC)c3)CC2)n1  575 s
6. Cc1ccc(NC(=O)Cn2c(N)nc(C)cc2=O)cc1  577 s
7. COCCN1CCC(N2CCN(S(=O)(=O)c3ccc(OC)c(Cl)c3)CC2)C1=O (stereo not drawn)  583 s
8. Cc1ccc(-n2cc(C3=CCN(CC(=O)N4CCN(c5ccccn5)CC4)CC3)cn2)cc1  584 s
9. CCn1c(CN2CCN(S(C)(=O)=O)CC2)nc2cc(NC(C)=O)ccc21  588 s
10. O=C(COc1ccc(NC(=O)C2CC2)cn1)NC1CCN(Cc2ccccc2)CC1  590 s
11. COc1ccc(-c2ncc(C(=O)O)c(=O)[nH]2)cc1OC  591 s
12. Cc1cc(C)n(-c2ccnc(NCCc3ccccn3)n2)n1  596 s
13. COC(=O)c1c(C)[nH]c(C(=O)N2CCC(CC(=O)NCCC(C)N3CCCCCC3)CC2)c1C (stereo not drawn)  604 s
14. CCOC(=O)c1ccc2nc(C)cc(NC(=O)c3cccs3)c2c1  607 s
15. Cc1cc(CN2CCC(CNC(=O)C(=O)NCCC3=CCCCC3)CC2)c(C)o1  607 s
16. O=C(NC1CC1)c1ccccc1OCC1CCCN(Cc2cn[nH]c2-c2cccs2)C1 (stereo not drawn)  615 s
17. O=C(O)CCNc1c(-c2ccc(F)cc2)nc2cnccn12  619 s
18. CCN(CC)CCNC(=O)Cn1nc(-c2ccc(Cl)cc2)ccc1=O  624 s
19. CCn1c(CN2CCN(S(C)(=O)=O)CC2)nc2cc(NC(=O)CC(C)C)ccc21  630 s
20. CC(=O)N1CCN(c2ccc(NC(=O)c3ccccc3Br)cc2)CC1  646 s
21. O=C1CC(C(=O)N2CCN(Cc3ccc4c(c3)OCO4)CC2)CN1CCc1c[nH]c2ccc(F)cc12 (stereo not drawn)  649 s
22. Cc1ccc2[nH]c(=O)c(CCC(=O)O)cc2c1  651 s
23. Cn1nc(C(=O)N2CCOCC2)c2c1CCN(C(=O)CCC(=O)NC1CCCCCC1)C2  652 s
24. O=C(NCc1ccncc1)C1CCCN(c2ccc(Sc3ccc(Br)cc3)nn2)C1 (stereo not drawn)  653 s
25. CCCN1C(=O)c2cc(C(=O)NCc3ccc(N(C)C)cc3)nn2CC1(C)C(=O)NC1CCCC1 (stereo not drawn)  655 s
26. O=c1cc(-c2ccccc2)nc2n1CCN2Cc1ccccn1  658 s
27. COCCN1C(=O)CS(=O)(=O)C12CCN(C(=O)C1(c3ccc(OC)cc3)CC1)CC2  661 s
28. Cc1c(C(=O)N2CCc3nc(NC(=O)C4CCCO4)sc3C2)cnn1-c1ccccc1 (stereo not drawn)  665 s
29. Cn1ncc(N2CCCC(CC(=O)NCc3cccs3)C2)cc1=O (stereo not drawn)  676 s
30. O=C(NCCN1CCCC1)c1nc(Nc2ccc(F)cc2)c2ccccc2n1  689 s
31. CC(C)n1c(=O)c(NCc2ccccc2Br)nc2ccncc21  699 s
32. COc1ccc(NC(=O)C2CCCN(c3nnc4ccc(Cl)cn34)C2)cc1OC (stereo not drawn)  701 s
33. O=C(NCc1ccco1)C1CCN(c2ccc3nnc(-c4ccccc4F)n3n2)CC1  708 s
34. Cn1cc(CN2CCC(C(=O)NCc3ccc(F)cc3)CC2)c2cc(Cl)ccc21  716 s
35. COc1ccc(Cl)cc1C(=O)Nc1ccc(-c2nc(C)no2)cc1  719 s
36. COc1cc2c(cc1OC)[C@@H](C(=O)N(C)c1ccc(Cl)cc1)[C@@H]1CCCCN1C2=O  719 s
37. C[C@@H](O)[C@H]1C(=O)N2C(C(=O)OCOC(=O)C(C)(C)C)=C(SC3CN(C4=NCCS4)C3)[C@H](C)[C@H]12  732 s
38. COc1ccc(CNC(=O)CN2CCN(Cc3ccc(C)cc3)C(=O)C2=O)cc1  734 s
39. Cc1ccccc1Cn1cc(-c2ccncc2)cc1C(=O)NCc1cccs1  741 s
40. CCCCN(C)C(=O)Cn1c(C2CC(=O)N(Cc3ccccc3)C2)nc2ccccc21 (stereo not drawn)  742 s
41. CCS(=O)(=O)N1CCC2(CC1)CN(Cc1ccc(OC)cc1)C2=O  745 s
42. Cc1cc(C)n2c(Nc3ccc4c(c3)OCCO4)c(-c3cccc(Br)c3)nc2n1  759 s
43. CCCNC(=O)N1CCC(c2noc(-c3ccccc3)n2)C1 (stereo not drawn)  763 s
44. Cc1ccc2c(Nc3ccc4c(c3)OCO4)c(C(=O)N3CCOCC3)cnc2n1  765 s
45. CCc1noc(NC(C)=O)c1-c1ccc(OC)c(S(=O)(=O)Nc2cc(OC)ccc2OC)c1  774 s
46. Cc1cccc(NC(=O)N2CCN(c3ccc(=O)n(-c4ccccc4)n3)CC2)c1  776 s
47. COc1ccc(S(=O)(=O)N2CCCC(C(=O)NCC3CCCO3)C2)cc1C (stereo not drawn)  778 s
48. CC(C)CNC(=O)C1CC(=O)N(CCc2c[nH]c3ccc(Cl)cc23)C1 (stereo not drawn)  781 s
49. Cc1ccc(CNC(=O)c2nc(Nc3ccc(F)cc3)c3ccccc3n2)o1  784 s
50. Cc1cc(=O)n(CC(=O)Nc2cccc(Cl)c2)c(N(C)Cc2ccccc2)n1  797 s
51. O=C(NCCc1csc(-c2cccc(F)c2)n1)Nc1c(F)cccc1F  810 s
52. C=CCNC(=O)c1cn(-c2cc(-c3nc(C(C)C)no3)ccn2)cn1  820 s
53. COc1cc(NC(=O)CN2C(=O)CCn3nc(-c4cn(C)c5ccccc45)cc32)cc(OC)c1  822 s
54. O=C(c1ccc(C(F)(F)F)cc1)N1CCC(n2c(-c3ccoc3)nc3cccnc32)C1 (stereo not drawn)  827 s
55. O=C(Cn1c2ccccc2c2ncn(Cc3nc(C4CC4)no3)c(=O)c21)NC1CCCCC1  834 s
56. COCCNC(=O)N1c2ccccc2CC1c1nc(C(C)C)no1 (stereo not drawn)  836 s
57. CC(C)CN1C(=O)CCc2cc(NS(=O)(=O)c3ccccc3)ccc21  844 s
58. O=C(Cc1ccc([N+](=O)[O-])cc1)NCc1ccc2[nH]c3c(c2c1)CCCC3  849 s
59. O=C(C1=CN(c2cc(F)cc(F)c2)c2cc(Cl)ccc2S1(=O)=O)N1CCCC1  861 s
60. CC(C)NC(=O)c1ccc(OCC2CCCN2C(=O)c2ccc(F)c(F)c2)cc1 (stereo not drawn)  862 s
61. Cc1cccc(-c2noc(-c3nn(-c4ccccc4)ccc3=O)n2)c1  898 s
62. CN1C(=O)C2(CCN(C(=O)C3CCCCC3)CC2)c2ccccc21  899 s
63. Cc1cccc(-n2c(=O)c3c(cc(C)n3C)n(CC(=O)Nc3ccc(C)c(C)c3)c2=O)c1  912 s
64. COc1ccccc1C(=O)N1CCc2cn(C)c3cccc(c23)C1  920 s
65. O=C(NCc1csc(-c2cccs2)n1)C1CCN(S(=O)(=O)c2ccc(Cl)cc2)CC1  927 s
66. Cc1nc(-c2ccc(OC3CCN(C(=O)c4nn(C)c5ccccc45)C3)cc2)no1 (stereo not drawn)  942 s
67. Cc1c(C(=O)N2CCOCC2)cnn1-c1ccc(-c2nc(C(C)(C)C)no2)cn1  942 s
68. O=C(c1cn(-c2cc(N3CCCCC3)ncn2)cn1)N1CCN(c2ccccc2)CC1  944 s
69. Cc1ccc(-c2nnc(-c3nc(N4CCOCC4)c4ccccc4n3)o2)cc1  945 s
70. CCc1ccccc1S(=O)(=O)N1CCC(N2CCN(Cc3ccc(C)cc3)C(=O)C2=O)CC1  955 s
71. O=C(NCCc1c[nH]c2ccc(Cl)cc12)c1cc(-c2ccccn2)nc2ccccc12  959 s
72. COC(=O)c1c(-c2ccc(Cl)cc2)noc1N1CCN(C(=O)c2ccco2)CC1  978 s
73. CCC(C(=O)N1CCN(c2cc(-c3ccc(Cl)cc3)[nH]n2)CC1)c1ccccc1 (stereo not drawn)  987 s
74. COc1ccc(OC)c(S(=O)(=O)Cc2nc(-c3ccc(C)cc3)no2)c1  1000 s
75. O=C(Cn1cccc1-c1nnc(-c2ccccc2)o1)N1CCc2ccccc21  1020 s
76. CCN(CC)S(=O)(=O)c1ccc(Cl)c(-c2nnc(-c3ccccc3OC)o2)c1  1020 s
77. Cc1ccc(S(=O)(=O)N2CCC(C)(C(=O)NCc3ccccc3C)CC2)cc1C  1030 s
78. Cc1ccc(C)c(-c2csc(NC(=O)c3cccs3)n2)c1  1040 s
79. Fc1ccc(-c2noc(-c3nc(-c4ccncc4)no3)n2)cc1F  1040 s
80. COc1ccccc1N1CCN(c2cc(SCC(=O)Nc3cc(C)ccc3C)ncn2)CC1  1070 s
81. CC1CCN(c2nc(-c3ccc(C(C)(C)C)cc3)nc3ccccc23)CC1  1070 s
82. O=C(NCc1ccccc1Cl)C1CCCN(c2nccnc2Sc2ccccc2)C1 (stereo not drawn)  1070 s
83. CCN(CC)c1nc2cc(C(=O)NCCC(C)C)ccc2c(=O)n1-c1ccccc1  1090 s
84. CCn1c(=O)c2ccccc2n(Cc2nc(-c3ccc(C(F)(F)F)cc3)no2)c1=O  1120 s
85. COc1ccc(C2Cn3nnc(-c4nc(-c5ccc(F)c(Br)c5)no4)c3CO2)cc1 (stereo not drawn)  1180 s
86. CC1Oc2ccccc2N(Cc2nc(-c3ccc(Br)cc3)no2)C1=O (stereo not drawn)  1180 s
87. COc1ccc(-n2c(=O)c(C(=O)Nc3cc(F)cc(F)c3)c(O)c3cccnc32)cc1  1300 s
88. CCc1ccccc1Nc1nc(-c2ccc(Cl)cc2)cs1  1310 s
